This is an account of results in US11083707B2, “Substituted indoline derivatives as dengue viral replication inhibitors” (JANSSEN PHARMACEUTICALS, INC., priority 2017, dated 2021).

pEC50: −log10 of the molar value. Where two headings read alike, the source gives them in different places.

Data set [1] deals with Vero cells. To be noted: African green monkey.
Data set [2] has as its system DENV-2 strain 16681. The data set can be described thus: Tetravalent RT-qPCR assay Protocol A, serotype 2. As to conditions: Dengue virus. The data set is classed as cell-based. How it is done:
(§1) The antiviral activity of the compounds of the invention was tested against DENV-1 strain TC974#666 (NCPV), DENV-2 strain 16681, DENV-3 strain H87 (NCPV) and DENV-4 strain H241 (NCPV) in a RT-qPCR assay. Therefore, Vero cells were infected with either DENV-1, or -2, or -3, or -4 in the presence or absence of test compounds. At day 3 post-infection, the cells were lysed and cell lysates were used to prepare cDNA of both a viral target (the 3′UTR of DENV; Table 2) and a cellular reference gene (β-actin, Table 2). Subsequently, a duplex real time PCR was performed on a Lightcycler480 instrument. The generated Cp value is inversely proportional to the amount of RNA expression of these targets. Inhibition of DENV replication by a test compound results in a shift of Cp's for the 3′UTR gene. On the other hand, if a test compound is toxic to the cells, a similar effect on β-actin expression will be observed. The comparative ΔΔCp method is used to calculate EC50, which is based on the relative gene expression of the target gene (3′UTR) normalized with the cellular housekeeping gene (β-actin). In addition, CC50 values are determined based on the Cp values acquired for the housekeeping gene β-actin.
(§2) The culture medium consisted of minimal essential medium supplemented with 2% of heat-inactivated fetal calf serum, 0.04% gentamycin (50 mg/mL) and 2 mM of L-glutamine. Vero cells, obtained from ECACC, were suspended in culture medium and 75 μL/well was added in 96-well plates (10000 cells/well), which already contain the antiviral compounds. […] In addition, each plate contains wells which are assigned as virus controls (containing cells and virus in the absence of compound) and cell controls (containing cells in the absence of virus and compound). Once the cells were added in the plates, the plates were incubated in a fully humidified incubator (37° C., 5% CO2) until the next day. Dengue viruses serotype-1, 2, 3 and 4 were diluted in order to obtain a Cp of ˜22-24 in the assay. Therefore, 25 μL of virus suspension was added to all the wells containing test compound and to the wells assigned as virus control. In parallel, 25 μL of culture medium was added to the cell controls. Next, the plates were incubated for 3 days in a fully humidified incubator (37° C., 5% CO2). After 3 days, the supernatant was removed from the wells and the cells were washed twice with ice-cold PBS (˜100 μL). The cell pellets within the 96-well plates were stored at −80° C. for at least 1 day. Next, RNA was extracted using the Cells-to-CT™ lysis kit, according to the manufacturer's guideline (Life Technologies). The cell lysates can be stored at −80° C. or immediately used in the reverse transcription step.
(§3) In preparation of the reverse transcription step, mix A (table 3A) was prepared and 7.57 μL/well was dispensed in a 96-well plate. After addition of 5 μL of the cell lysates, a five minute denaturation step at 75° C. was performed (table 3B). Afterwards, 7.43 μL of mix B was added (table 3C) and the reverse transcription step was initiated (table 3D) to generate cDNA.
(§4) Finally, a RT-qPCR mix was prepared, mix C (table 4A), and 22.02 μL/well was dispensed in 96-well LightCycler qPCR plates to which 3 μL of cDNA was added and the qPCR was performed according to the conditions in table 4B on a LightCycler 480.
(§5) Using the LightCycler software and an in-house LIMS system, dose response curves for each compound were calculated and the half maximal effective concentration (EC50) and the half maximal cytotoxic concentration (CC50) were determined (Tables 5-8).
For orientation: Real-time PCR tracks product formation cycle by cycle.

Data set [3] deals with DENV-4 strain H241. The data set can be described thus: Tetravalent RT-qPCR assay Protocol A, serotype 4. To be noted: Dengue virus, DENV4, 72 h; RT-qPCR serotype 4 H241, Vero cells, day 3. The data set is classed as cell-based. How it is done:
as §1, §2, §3, §4, §5

For data set [4], the system named is DENV-1 strain TC974#666. The data set can be described thus: Tetravalent RT-qPCR assay Protocol A, serotype 1. Format: cell-based. To be noted: Dengue virus, DENV1, 72 h; RT-qPCR serotype 1 TC974#666, Vero cells, day 3. The method, then:
as §1, §2, §3, §4, §5

Data set [5] concerns DENV-3 strain H87. The data set can be described thus: Tetravalent RT-qPCR assay Protocol A, serotype 3. The data set is classed as cell-based. To be noted: Dengue virus, DENV3, 72 h; RT-qPCR serotype 3 H87, Vero cells, day 3. The method, then: as §1, §2, §3, §4, §5
The subject of data set [6] is DENV-2 16681 strain. The data set can be described thus: DENV-2 antiviral assay (eGFP fluorescence, Vero cells). The data set is classed as cell-based, Dengue virus. As to conditions: DENV-2 16681 eGFP, MOI 0.5, 3 days. The method, then:
The antiviral activity of all the compounds of the invention was tested against the DENV-2 16681 strain which was labeled with enhanced green fluorescent protein (eGPF). The culture medium consists of minimal essential medium supplemented with 2% of heat-inactivated fetal calf serum, 0.04% gentamycin (50 mg/mL) and 2 mM of L-glutamine. Vero cells, obtained from ECACC, were suspended in culture medium and 25 μL was added to 384-well plates (2500 cells/well), which already contain the antiviral compounds. Typically, these plates contain a 5-fold serial dilution of 9 dilution steps of the test compound at 200 times the final concentration in 100% DMSO (200 nL). […] Finally, each plate contains wells which are assigned as virus controls (containing cells and virus in the absence of compound), cell controls (containing cells in the absence of virus and compound) and medium controls (containing medium in the absence of cells, virus and compounds). To the wells assigned as medium control, 25 μL of culture medium was added instead of Vero cells. Once the cells were added to the plates, the plates were incubated for 30 minutes at room temperature to allow the cells to distribute evenly within the wells. Next, the plates were incubated in a fully humidified incubator (37° C., 5% CO2) until the next day. Then, DENV-2 strain 16681, labeled with eGFP, was added at a multiplicity of infection (MOI) of 0.5. Therefore, 15 μL of virus suspension was added to all the wells containing test compound and to the wells assigned as virus control. In parallel, 15 μL of culture medium was added to the medium and cell controls. Next, the plates were incubated for 3 days in a fully humidified incubator (37° C., 5% CO2). At the day of the read out, the eGFP fluorescence was measured using an automated fluorescence microscope at 488 nm (blue laser). Using an in-house LIMS system, inhibition dose response curves for each compound were calculated and the half maximal effective concentration (EC50) was determined. Therefore, the percent inhibition (I) for every test concentration is calculated using the following formula: I=100*(ST-SCC)/(SVC-SCC), ST, SCC and SVC are the amount of eGFP signal in the test compound, cell control and virus control wells, respectively. The EC50 represents the concentration of a compound at which the virus replication is inhibited with 50%, as measured by a 50% reduction of the eGFP fluorescent intensity compared to the virus control. The EC50 is calculated using linear interpolation (Table 1).

Data set [7] can be described thus: in vitro. As to conditions: African green monkey.
Data set [8] is described as follows: in vitro. To be noted: African green monkey. Format: cell-based. The method, then: as §1, §2, §3, §4, §5
The mark [9] stands for this setting: DENV2, 72 h, RT-qPCR serotype 2 16681, Vero cells, day 3, read-out: EC50.

What is called pEC50 is the EC50 on a negative log10 scale, so that one unit is a factor of ten. Take `COc1cc(NC(C(=O)N2CCc3ccc(OC(F)(F)F)cc32)c2ccc(F)cc2OCCO)cc(-n2cncn2)c1` (single isomer, unassigned) [Compound 3B]: in data set [1], the CC50 is 8700 nM. Further, the pEC50 in data set [2] (setting [9]) is 8.85; in data set [3], 7.01; in data set [4] it was 8.62; in data set [5], 7.64; in data set [6] it was 9.00.
`COc1cc(NC(C(=O)N2CCc3ccc(OC(F)(F)F)cc32)c2ccc(Cl)cc2OCCO)cc(-n2cncn2)c1` (single isomer, unassigned) [Compound 6A]: the pEC50 in data set [2] (setting [9]) is 9.31; in data set [3], 7.22; in data set [4], 9.19; in data set [5] it was 8.09; in data set [6], 9.23. Further, the CC50 in data set [7] amounted to 8500 nM.
In data set [1], `COc1cc(NC(C(=O)N2CCc3ccc(OC(F)(F)F)cc32)c2ccc(Cl)cc2OCCO)cc(-n2cncn2)c1` (single isomer, unassigned) [Compound 6B] returned a CC50 of 7300 nM. Moreover, the pEC50 in data set [6] was 7.04.
For `COc1cc(NC(C(=O)N2CCc3cc(F)c(C(F)(F)F)cc32)c2ccc(Cl)cc2OCCO)cc(-n2cncn2)c1` (single isomer, unassigned) [Compound 7B], the CC50 in data set [1] came to 7600 nM. In addition, the pEC50 in data set [2] (setting [9]) is 8.72; in data set [3], 6.92; in data set [4], 9.06; in data set [5], 7.89; in data set [6] it was 8.74.
Take `COc1cc(NC(C(=O)N2CCc3cc(OC)c(OC(F)(F)F)cc32)c2ccc(Cl)cc2OCCO)cc(-n2cncn2)c1` (single isomer, unassigned) [Compound 8A]: the pEC50 was 9.42 in data set [2] (DENV2, Vero, 72 h); 7.25 in data set [3]; 8.70 in data set [4]; 7.82 in data set [5]; 8.82 in data set [6]. Besides, the CC50 in data set [7] was 12000 nM.
With `COc1cc(NC(C(=O)N2CCc3cc(OC)c(OC(F)(F)F)cc32)c2ccc(Cl)cc2OCCO)cc(-n2cncn2)c1` (single isomer, unassigned) [Compound 8B], in data set [1], the CC50 was determined as 12000 nM. The molecule also showed a pEC50 in data set [6] of 6.60.
`COc1cc(NC(C(=O)N2CCc3cc(F)c(OC(F)(F)F)cc32)c2ccc(Cl)cc2OCCO)cc(-n2cncn2)c1` (single isomer, unassigned) [Compound 9A] registered a CC50 in data set [1] of 4200 nM. In data set [6], the pEC50 is 6.60.
In turn, `COc1cc(NC(C(=O)N2CCc3cc(F)c(OC(F)(F)F)cc32)c2ccc(Cl)cc2OCCO)cc(-n2cncn2)c1` (single isomer, unassigned) [Compound 9B] yielded a CC50 in data set [1] of 10000 nM. In addition, the pEC50 is 9.33 in data set [2] (setting [9]); 7.06 in data set [3]; 9.00 in data set [4]; 8.19 in data set [5]; 9.22 in data set [6].
`COc1cc(NC(C(=O)N2CCc3c(C)cc(OC(F)(F)F)cc32)c2ccc(Cl)cc2OCCO)cc(-n2cncn2)c1` (single isomer, unassigned) [Compound 10B] registered a CC50 in data set [1] of 11000 nM. Moreover, the pEC50 in data set [2] (setting [9]) was 9.82; in data set [3], 7.49; in data set [4], 9.44; in data set [5], 8.23; in data set [6], 9.60.
As to `COc1cc(NC(C(=O)N2CCc3cc(OC)c(C(F)(F)F)cc32)c2ccc(Cl)cc2OCCCC(=O)O)cc(-n2cncn2)c1` (single isomer, unassigned) [Compound 12A], the pEC50 was 9.38 in data set [2] (setting [9]); 7.00 in data set [3]; 8.68 in data set [4]; 7.44 in data set [5]; 8.92 in data set [6]. Moreover, in data set [7], the CC50 was 13000 nM.
In data set [1], `COc1cc(NC(C(=O)N2CCc3cc(OC)c(C(F)(F)F)cc32)c2ccc(Cl)cc2OCCCC(=O)O)cc(-n2cncn2)c1` (single isomer, unassigned) [Compound 12B] gave a CC50 of 12000 nM. In addition, in data set [6], the pEC50 is 6.49.
Regarding `COc1cc(NC(C(=O)N2CCc3ccc(OC(F)(F)F)cc32)c2ccc(Cl)cc2OCCCC(=O)O)cc(-n2cncn2)c1` (single isomer, unassigned) [Compound 13A], the pEC50 in data set [2] (setting [9]) is 10.24; in data set [3] it was 8.00; in data set [4] it was 9.92; in data set [5], 8.74; in data set [6], 9.92. The CC50 in data set [7] is 12000 nM. The CC50 at 3 days in data set [8] was > 2500 nM.
Take `COc1cc(NC(C(=O)N2CCc3ccc(OC(F)(F)F)cc32)c2ccc(Cl)cc2OCCCC(=O)O)cc(-n2cncn2)c1` (single isomer, unassigned) [Compound 13B]: in data set [1], the CC50 was found to be 12000 nM. The pEC50 in data set [6] was 7.92.
In data set [7], `COc1cc(NC(C(=O)N2CCc3cc(F)c(OC(F)(F)F)cc32)c2ccc(Cl)cc2OCCCC(=O)O)cc(-n2cncn2)c1` (single isomer, unassigned) [Compound 15A] came in with a CC50 of 10000 nM. The molecule further had a pEC50 in data set [6] of 8.28.
Turning to `COc1cc(NC(C(=O)N2CCc3cc(F)c(OC(F)(F)F)cc32)c2ccc(Cl)cc2OCCCC(=O)O)cc(-n2cncn2)c1` (single isomer, unassigned) [Compound 15B], in data set [1], the CC50 is 11000 nM. Moreover, the pEC50 is 10.00 in data set [2] (DENV2, Vero, 72 h); 7.82 in data set [3]; 9.89 in data set [4]; 8.55 in data set [5]; 9.89 in data set [6].
In data set [7], `COc1cc(NC(C(=O)N2CCc3c(C)cc(OC(F)(F)F)cc32)c2ccc(Cl)cc2OCCCC(=O)O)cc(-n2cncn2)c1` (single isomer, unassigned) [Compound 16A] had a CC50 of 11000 nM. The same molecule gave a pEC50 in data set [6] of 7.85.
